Experimental data taken from patent US12466827B2, “1,3,4-oxadiazole derivative compounds as histone deacetylase 6 inhibitor, and the pharmaceutical composition comprising the same” (CHONG KUN DANG PHARMACEUTICAL CORP., priority 2020, dated 2025).

How the values were obtained:
[1] = target: T1, human recombinant HDAC1 (Homo sapiens, UniProt Q13547); test: In vitro HDAC enzyme activity inhibition assay (HDAC1); assay type: biochemical; settings: Fluor de Lys-SIRT1 substrate 10 μM, 30° C., 60 minutes, fluorescence
T1 construct: purchased Enzo Life Sciences, Inc. BML-SE456
T1 sequence (Q13547 whole entry): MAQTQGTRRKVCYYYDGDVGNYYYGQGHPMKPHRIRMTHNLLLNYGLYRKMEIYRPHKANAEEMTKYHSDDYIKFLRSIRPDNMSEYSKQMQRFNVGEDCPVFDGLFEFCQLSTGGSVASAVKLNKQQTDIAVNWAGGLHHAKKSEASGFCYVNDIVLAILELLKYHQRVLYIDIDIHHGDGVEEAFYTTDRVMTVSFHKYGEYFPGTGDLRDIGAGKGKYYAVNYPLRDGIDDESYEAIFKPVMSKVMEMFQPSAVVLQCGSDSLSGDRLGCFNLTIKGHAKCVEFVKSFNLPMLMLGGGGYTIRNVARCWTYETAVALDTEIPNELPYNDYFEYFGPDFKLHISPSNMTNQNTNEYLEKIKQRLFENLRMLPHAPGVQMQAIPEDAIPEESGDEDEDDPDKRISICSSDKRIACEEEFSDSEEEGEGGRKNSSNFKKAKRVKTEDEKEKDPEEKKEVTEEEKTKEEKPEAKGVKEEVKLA
Procedure, shortened: (§1)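 Fluorimetric deacetylase kit: human recombinant HDAC1 or HDAC6 (0.3 μg) with 10 μM Fluor de Lys-SIRT1 substrate and 5-fold diluted compounds, 60 min at 30° C. Developer added for 30 min, fluorescence read at Ex 360/Em 460, IC50 calculated.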

[2] = target: T2, human recombinant HDAC6 (Homo sapiens, UniProt Q9UBN7); test: In vitro HDAC enzyme activity inhibition assay (HDAC6); assay type: biochemical; settings: for HDAC6 selectivity (fold): HDAC6 over HDAC1; for IC50: same protocol as the HDAC1 test, human recombinant HDAC6 (Calbiochem)
T2 construct: purchased Calbiochem Inc. 382180
T2 sequence (Q9UBN7 1-1215): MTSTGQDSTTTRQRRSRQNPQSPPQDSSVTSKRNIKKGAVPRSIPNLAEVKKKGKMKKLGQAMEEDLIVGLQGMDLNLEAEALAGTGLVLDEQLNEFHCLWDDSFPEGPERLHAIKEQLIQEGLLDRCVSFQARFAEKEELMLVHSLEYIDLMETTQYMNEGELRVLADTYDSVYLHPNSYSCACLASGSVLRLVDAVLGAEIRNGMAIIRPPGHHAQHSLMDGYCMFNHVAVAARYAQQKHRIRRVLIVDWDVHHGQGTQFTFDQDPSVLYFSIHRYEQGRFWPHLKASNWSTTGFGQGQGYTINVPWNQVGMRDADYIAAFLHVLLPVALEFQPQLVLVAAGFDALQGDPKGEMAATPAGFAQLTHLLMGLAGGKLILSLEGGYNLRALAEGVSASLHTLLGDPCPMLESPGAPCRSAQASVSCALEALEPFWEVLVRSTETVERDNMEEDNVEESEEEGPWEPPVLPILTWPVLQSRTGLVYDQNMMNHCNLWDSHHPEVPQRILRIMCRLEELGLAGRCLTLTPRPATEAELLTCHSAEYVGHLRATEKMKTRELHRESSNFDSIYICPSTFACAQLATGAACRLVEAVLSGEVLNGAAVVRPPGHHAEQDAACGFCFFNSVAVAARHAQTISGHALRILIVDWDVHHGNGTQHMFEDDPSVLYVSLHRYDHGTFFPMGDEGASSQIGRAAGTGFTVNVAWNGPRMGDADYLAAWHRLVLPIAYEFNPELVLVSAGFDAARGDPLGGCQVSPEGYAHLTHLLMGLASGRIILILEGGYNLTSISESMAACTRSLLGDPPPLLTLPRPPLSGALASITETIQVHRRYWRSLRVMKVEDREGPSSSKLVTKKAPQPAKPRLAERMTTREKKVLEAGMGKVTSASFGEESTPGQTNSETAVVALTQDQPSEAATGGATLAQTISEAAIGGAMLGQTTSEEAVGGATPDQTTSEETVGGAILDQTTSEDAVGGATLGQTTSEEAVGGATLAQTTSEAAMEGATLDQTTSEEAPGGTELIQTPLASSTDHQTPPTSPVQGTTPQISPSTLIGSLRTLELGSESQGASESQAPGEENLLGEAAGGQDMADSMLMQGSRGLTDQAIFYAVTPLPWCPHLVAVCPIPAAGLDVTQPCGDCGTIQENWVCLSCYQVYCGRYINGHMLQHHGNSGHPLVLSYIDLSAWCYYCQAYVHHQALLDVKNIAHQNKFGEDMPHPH
Procedure, shortened: as §1

Row | Structure (SMILES) | IC50 [1] [nM] | HDAC6 selectivity (fold) [2] [fold] | IC50 [2] [nM]
1 | O=S(=O)(C1CCN(C2CCOCC2)CC1)N(Cc1cn2ccc(-c3nnc(C(F)F)o3)cc2n1)c1cccc(F)c1 [Compound 4243, N-((7-(5-(difluoromethyl)-1,3,4-oxadiazol-2-yl)imidazo[1,2-a]pyridin-2-yl)methyl)-N-(3-fluorophenyl)-1-(tetrahydro-2H-pyran-4-yl)piperidine-4-sulfonamide] | > 50000 | 530 | 94.3
2 | O=C(C1COC1)N1CCC(S(=O)(=O)N(Cc2cn3ccc(-c4nnc(C(F)F)o4)cc3n2)c2cccc(F)c2)CC1 [Compound 4249, N-((7-(5-(difluoromethyl)-1,3,4-oxadiazol-2-yl)imidazo[1,2-a]pyridin-2-yl)methyl)-N-(3-fluorophenyl)-1-(oxetan-3-carbonyl)piperidine-4-sulfonamide] | > 50000 | 684 | 73.1
3 | CN1CCC(S(=O)(=O)N(Cc2cn3ccc(-c4nnc(C(F)F)o4)cc3n2)c2cccc(F)c2)CC1 [Compound 4236, N-((7-(5-(difluoromethyl)-1,3,4-oxadiazol-2-yl)imidazo[1,2-a]pyridin-2-yl)methyl)-N-(3-fluorophenyl)-1-methylpiperidine-4-sulfonamide] | > 50000 | 678 | 73.8
4 | O=S(=O)(C1CCN(C2CCCCC2)CC1)N(Cc1cn2ccc(-c3nnc(C(F)F)o3)cc2n1)c1ccccc1 [Compound 4218, 1-cyclohexyl-N-((7-(5-(difluoromethyl)-1,3,4-oxadiazol-2-yl)imidazo[1,2-a]pyridin-2-yl)methyl)-N-phenylpiperidine-4-sulfonamide] | > 50000 | 433 | 116
5 | CC(CO)N1CCC(S(=O)(=O)N(Cc2cn3ccc(-c4nnc(C(F)F)o4)cc3n2)c2cccc(F)c2)CC1 (stereo not drawn) [Compound 4239, N-((7-(5-(difluoromethyl)-1,3,4-oxadiazol-2-yl)imidazo[1,2-a]pyridin-2-yl)methyl)-N-(3-fluorophenyl)-1-(1-hydroxypropan-2-yl)piperidine-4-sulfonamide] | > 50000 | 635 | 78.8
6 | CN(C)C(=O)N1CCC(S(=O)(=O)N(Cc2cn3ccc(-c4nnc(C(F)F)o4)cc3n2)c2ccccc2)CC1 [Compound 4227, 4—(N-((7-(5-(difluoromethyl)-1,3,4-oxadiazol-2-yl)imidazo[1,2-a]pyridin-2-yl)methyl)-N-phenylsulfamoyl)-N, N-dimethylpiperidine-1-carboxamide] | > 50000 | 241 | 208
7 | O=S(=O)(C1CCN(C2COC2)CC1)N(Cc1cn2ccc(-c3nnc(C(F)F)o3)cc2n1)c1ccccc1 [Compound 3779, N-((7-(5-(difluoromethyl)-1,3,4-oxadiazol-2-yl)imidazo[1,2-a]pyridin-2-yl)methyl)-1-(oxetan-3-yl)-N-phenylpiperidine-4-sulfonamide] | > 50000 | 321 | 156
8 | O=S(=O)(C1CCN(c2ncccn2)CC1)N(Cc1cn2ccc(-c3nnc(C(F)F)o3)cc2n1)c1cccc(F)c1 [Compound 4255, N-((7-(5-(difluoromethyl)-1,3,4-oxadiazol-2-yl)imidazo[1,2-a]pyridin-2-yl)methyl)-N-(3-fluorophenyl)-1-(pyrimidin-2-yl)piperidine-4-sulfonamide] | > 50000 | 463 | 108

Now from value to compound:

Row | IC50 [1] [nM] | HDAC6 selectivity (fold) [2] [fold] | IC50 [2] [nM] | Structure (SMILES)
9 | > 50000 | 309 | 162 | O=S(=O)(N1CCN(c2ncccn2)CC1)N(Cc1cn2ccc(-c3nnc(C(F)F)o3)cc2n1)c1cccc(F)c1 [Compound 4315, N-((7-(5-(difluoromethyl)-1,3,4-oxadiazol-2-yl)imidazo[1,2-a]pyridin-2-yl)methyl)-N-(3-fluorophenyl)-4-(pyrimidin-2-yl)piperazine-1-sulfonamide]
10 | > 50000 | 832 | 60.1 | O=S(=O)(N1CCN(C2CCOCC2)CC1)N(Cc1cn2ccc(-c3nnc(C(F)F)o3)cc2n1)c1cccc(F)c1 [Compound 4304, N-((7-(5-(difluoromethyl)-1,3,4-oxadiazol-2-yl)imidazo[1,2-a]pyridin-2-yl)methyl)-N-(3-fluorophenyl)-4-(tetrahydro-2H-pyran-4-yl)piperazine-1-sulfonamide]
11 | > 50000 | 617 | 81 | CC(=O)N1CCN(S(=O)(=O)N(Cc2cn3ccc(-c4nnc(C(F)F)o4)cc3n2)c2cccc(F)c2)CC1 [Compound 4306, 4-acetyl-N-((7-(5-(difluoromethyl)-1,3,4-oxadiazol-2-yl)imidazo[1,2-a]pyridin-2-yl)methyl)-N-(3-fluorophenyl)piperazine-1-sulfonamide]
12 | > 50000 | 246 | 203 | O=S(=O)(N1CCN(C2CCC(F)(F)CC2)CC1)N(Cc1cn2ccc(-c3nnc(C(F)F)o3)cc2n1)c1ccccc1 [Compound 4264]
13 | > 50000 | 595 | 84.1 | O=S(=O)(N1CCN(C2CCC2)CC1)N(Cc1cn2ccc(-c3nnc(C(F)F)o3)cc2n1)c1cccc(F)c1 [Compound 4301, 4-cyclobutyl-N-((7-(5-(difluoromethyl)-1,3,4-oxadiazol-2-yl)imidazo[1,2-a]pyridin-2-yl)methyl)-N-(3-fluorophenyl)piperazine-1-sulfonamide]
14 | > 50000 | 298 | 168 | COC(=O)N1CCN(S(=O)(=O)N(Cc2cn3ccc(-c4nnc(C(F)F)o4)cc3n2)c2ccccc2)CC1 [Compound 4272, methyl 4-(N-((7-(5-(difluoromethyl)-1,3,4-oxadiazol-2-yl)imidazo[1,2-a]pyridin-2-yl)methyl)-N-phenylsulfamoyl)piperazine-1-carboxylate]
15 | > 50000 | 16 | 3120 | CC(C)(C)OC(=O)N1CCC(S(=O)(=O)N(Cc2cn3ccc(-c4nnc(C(F)(F)F)o4)cc3n2)c2cccc(F)c2)CC1 [Compound 6893, tert-butyl 4-(N-(3-fluorophenyl)-N-((7-(5-(trifluoromethyl)-1,3,4-oxadiazol-2-yl)imidazo[1,2-a]pyridin-2-yl)methyl)sulfamoyl)piperidine-1-carboxylate]
16 | > 50000 | 510 | 98 | O=C(N1CCN(S(=O)(=O)N(Cc2cn3ccc(-c4nnc(C(F)F)o4)cc3n2)c2cccc(F)c2)CC1)C(F)(F)F [Compound 4311, N-((7-(5-(difluoromethyl)-1,3,4-oxadiazol-2-yl)imidazo[1,2-a]pyridin-2-yl)methyl)-N-(3-fluorophenyl)-4-(2,2,2-trifluoroacetyl)piperazine-1-sulfonamide]
17 | > 50000 | 410 | 122 | CC(CO)N1CCN(S(=O)(=O)N(Cc2cn3ccc(-c4nnc(C(F)F)o4)cc3n2)c2cccc(F)c2)CC1 (stereo not drawn) [Compound 4300, N-((7-(5-(difluoromethyl)-1,3,4-oxadiazol-2-yl)imidazo[1,2-a]pyridin-2-yl)methyl)-N-(3-fluorophenyl)-4-(1-hydroxypropan-2-yl)piperazine-1-sulfonamide]
18 | > 50000 | 573 | 87.3 | O=S(=O)(N1CCN(C2CCC2)CC1)N(Cc1cn2ccc(-c3nnc(C(F)F)o3)cc2n1)c1ccccc1 [Compound 4260, 4-cyclobutyl-N-((7-(5-(difluoromethyl)-1,3,4-oxadiazol-2-yl)imidazo[1,2-a]pyridin-2-yl)methyl)-N-phenylpiperazine-1-sulfonamide]
